This note sets out measurements from ChEMBL document CHEMBL1149010, “A comparative study on anti-inflammatory activities of the enantiomers, shikonin and alkannin” (1986).

SMILES strings stand for the structures.

Common to all, as to type: functional
The test system of experiment [1] is Rattus norvegicus. The experiment can be described thus: Decrease in histamine-induced capillary permeability in Wistar rat assessed as inhibition of pontamine sky blue 6BX dye leakage at 50 ug treated topically relative to control.
In experiment [2] the test system is Rattus norvegicus. The experiment can be described thus: Antiinflammatory activity against thermal injury-induced edema in Wistar rat skin assessed as inhibition of edema at 50 ug treated topically relative to control. Set-up: scale not given: the % may be the effect or the level left.
Experiment [3] concerns Rattus norvegicus. The experiment can be described thus: Antiinflammatory activity against thermal injury-induced edema in Wistar rat skin assessed as inhibition of edema at 100 ug treated topically relative to control. The arrangement: scale not given: the % may be the effect or the level left.
In experiment [4] the test system is Rattus norvegicus. The experiment can be described thus: Decrease in histamine-induced capillary permeability in Wistar rat assessed as inhibition of pontamine sky blue 6BX dye leakage at 100 ug treated topically relative to control.

Take `CC(C)=CC[C@@H](O)C1=CC(=O)c2c(O)ccc(O)c2C1=O` (stereo in doubt; form 1) [SHIKONIN]: the entries for the “inhibition (INH)” value in experiment [1] and in experiment [4] were 13.7% and 22.3%, respectively. The Activity came out at 22% in experiment [2] and 20.6% in experiment [3].
Take `CC(C)=CC[C@@H](O)C1=CC(=O)c2c(O)ccc(O)c2C1=O` (stereo in doubt; form 2) [SHIKONIN]: the Activity is recorded as 26.7% in experiment [2] and 23.2% in experiment [3].
As to `CC(C)=CC[C@H](O)C1=CC(=O)c2c(O)ccc(O)c2C1=O` [ALKANNIN], the “inhibition (INH)” value is listed as 7.9% in experiment [1] and 21.3% in experiment [4]. Also, the Activity in experiment [2] is 21.3%; in experiment [3] it was 21.7%.
Regarding `CCCCC1C(=O)N(c2ccccc2)N(c2ccccc2)C1=O` [PHENYLBUTAZONE], the Activity in experiment [2] was 38.9%.
